Assays:
Type in all cases: in vivo, mouse
[1] = test system: Swiss mice with partial portal vein ligation (PPVL); assay: Hemodynamic parameters (flow superior mesenteric artery) in partial portal vein ligation (PPVL) model; details: lanifibranor 30 mg/kg daily for 7 days, started one week after ligation
Method: (§1) Experiments were carried out using Swiss mice (7 to 10 animals per groups). Portal hypertension was induced using the partial portal vein ligation (PPVL) model. A midline abdominal incision was performed and the portal vein was separated from the surrounding tissue. A ligature (silk cut 5-0) was tied around both portal vein and adjacent 27-gauge blunt-tipped needle. Subsequent removal of the needle yielded a calibrated stenosis of the portal vein. One week after the ligation mice received daily lanifibranor (10 mg/kg or 30 mg/kg) or vehicle in a therapeutic setting for 7 days. The effect of lanifibranor on angiogenesis was evaluated by analyzing hepatic and systemic hemodynamics, serum, hepatic and mesenteric histology. The vascular corrosion casting is a technic allowing the capture of the 3D structure of the vascular bed. Briefly the vascular corrosion casts were obtained by inserting, after euthanasia, a 26-gauge catheter into the ileocolic vein, which was then perfused with Batson n°17 solution. The soft tissue was dissolved overnight in a 25% potassium hydroxide solution. The vascular corrosion casts of the venous mesenteric vasculature were analyzed using μCT.

[2] = test system: Swiss mice with partial portal vein ligation (PPVL); assay: Spleen weight in partial portal vein ligation (PPVL) model; details: for spleen weight: control 0.38, PPVL 0.63; for reduction of spleen weight: control 0.38, PPVL 0.63% body weight
Method: as §1

[3] = test system: Swiss mice with partial portal vein ligation (PPVL); assay: Corrosion vascular casting of venous mesenteric vasculature analyzed by μCT in PPVL model; details: for mesenteric vascular wall thickness: control 20.31, PPVL 37.53
Method: as §1

[4] = test system: Swiss mice with partial portal vein ligation (PPVL); assay: Immunohistochemistry staining for CD34 (angiogenesis and vascular expansion) in mesenteric area in PPVL model
Method: as §1, with “μCT. Evaluation of the vasculature system with an immunohistochemistry staining for CD34 allow to highlight the increase of blood vessels in the mesenteric area in PPVL animals. […]” for “μCT.”

## O=C(O)CCCc1cc2cc(Cl)ccc2n1S(=O)(=O)c1ccc2ncsc2c1 [lanifibranor, 4-[1-(1,3-benzothiazol-6-ylsulfonyl)-5-chloroindol-2-yl]butanoic acid]
[1]
  reduction of flow superior mesenteric artery: 51.7%
[2]; 10 mg/kg daily for 7 days
  spleen weight: 0.57 % body weight
  reduction of spleen weight: 23.7%
[2]; 30 mg/kg daily for 7 days
  spleen weight: 0.49 % body weight
  reduction of spleen weight: 56.1%
[3]; 10 mg/kg daily for 7 days
  reduction of mesenteric vascular wall thickness: 49.8%
  mesenteric vascular wall thickness: 28.9 µm
[3]; 30 mg/kg daily for 7 days
  reduction of mesenteric vascular wall thickness: 52.3%
  mesenteric vascular wall thickness: 28.5 µm
[3]; lanifibranor treatment, data not shown
  expansion of the venous mesenteric vasculature: reduced
[4]; 10 mg/kg daily for 7 days
  reduction of staining for CD34: 69.5%
[4]; 30 mg/kg daily for 7 days
  reduction of staining for CD34: 135.8%

Reference: US20260256748A1, “LANIFIBRANOR FOR USE IN THE TREATMENT OF SPLANCHNIC VASODILATATION IN A PATIENT WITH A LIVER CONDITION” (INVENTIVA, priority 2023, published 2026)
